This note sets out measurements from article PMC13586308, “Cell type–selective targeting by heterobifunctional protein binders via in-cell enrichment” (Nature Communications, 2026).

In experiment [1] the target is T1, BRD3BD1 (Homo sapiens, UniProt Q15059).
T1 construct: to the isolated BD1 and BD2 domains of BRD2, BRD3 and BRD4
The experiment is described as follows: competitive FP assay, BRD3 BD1 -/+ FKBP12. The experiment is classed as binding.

Experiment [2] has as its target T2, BRD2BD1 (Homo sapiens, UniProt P25440).
T2 construct: to the isolated BD1 and BD2 domains of BRD2, BRD3 and BRD4
The experiment is described as follows: competitive FP assay, BRD2 BD1 -/+ FKBP12. Type of experiment: binding.

In experiment [3] the test system is BRD4 43-463 Y390A. Description: competitive FP assay, BRD4 tandem construct Y390A. The experiment is classed as binding.
In experiment [4] the target is BRD2BD2 (Homo sapiens, UniProt P25440). The experiment is described as follows: competitive FP assay, BRD2 BD2 -/+ FKBP12. The experiment is classed as binding.
BRD2BD2, sequence (P25440 344-453 limits assumed): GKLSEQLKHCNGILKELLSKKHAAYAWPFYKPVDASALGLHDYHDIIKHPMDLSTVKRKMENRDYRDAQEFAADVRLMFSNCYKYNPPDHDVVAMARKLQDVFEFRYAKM
The target in experiment [5] is T3, BRD3BD2 (Homo sapiens, UniProt Q15059).
T3 construct: to the isolated BD1 and BD2 domains of BRD2, BRD3 and BRD4
T3 sequence (Q15059 306-415 limits assumed): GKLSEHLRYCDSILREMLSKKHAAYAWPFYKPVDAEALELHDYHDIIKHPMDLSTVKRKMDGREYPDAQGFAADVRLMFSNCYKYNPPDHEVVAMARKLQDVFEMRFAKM
The experiment is described as follows: competitive FP assay, BRD3 BD2 -/+ FKBP12. Type of experiment: binding.

In experiment [6] the test system is BRD4 43-463 Y97A. Description: competitive FP assay, BRD4 tandem construct Y97A. The experiment is classed as binding.
Experiment [7] has as its target T4, BRD4^BD2 (Homo sapiens, UniProt O60885).
T4 construct: to the isolated BD1 and BD2 domains of BRD2, BRD3 and BRD4
Description: competitive fluorescence polarization assay, BRD4 BD2 -/+ presenter protein. Type of experiment: binding.

Experiment [8] deals with T5, BRD4^BD1 (Homo sapiens, UniProt O60885).
T5 construct: to the isolated BD1 and BD2 domains of BRD2, BRD3 and BRD4
The experiment is described as follows: competitive fluorescence polarization assay, BRD4 BD1 -/+ presenter protein. The experiment is classed as binding.

The target of experiment [9] is T6, BRD4 (Homo sapiens, UniProt O60885).
T6 construct: full-length BRD4 fused to NanoLuc at N terminus; expressed in transfected cells; host or cells: HEK293T
Description: NanoBRET BRD4, transient BRD4-NanoLuc in HEK293T cells. Type of experiment: cell-based. The conditions noted are these: intact HEK293 cells. Here is the method: The NanoBRET assay was performed as described previously[26],[39]. To study BRD4 engagement, we employed two models: cells stably expressing BRD4-NanoLuc and cells with transient BRD4-NanoLuc expression. For stable cell lines, the coding sequence of human BRD4 (Isoform B) was fused in-frame to NanoLuc luciferase under the control of the human ubiquitin C (UbC) promoter, with left and right homology arms targeting the AAVS1 locus in intron 1 of the PPP1R12C gene to facilitate genomic integration. PC3 prostate cancer cells were transfected with this construct and vectors expressing Cas9 and an sgRNA targeting the AAVS1 locus using Lipofectamine 3000 (Invitrogen). Successful integrands were selected with blasticidin. Expression of the fusion protein was confirmed by western blot. For transient experiments, full-length BRD4 fused to NanoLuc at N terminus, was cloned into an expression plasmid and transfected into HEK293T cells using FuGENE HD (Promega, E2312), with protein expression allowed for 20 h. Serially diluted inhibitors and BRD Tracer-02 (Promega, TracerDB ID: T000022) at the Tracer KD concentration (from TracerDB)[40] were dispensed into white 384-well plates (Greiner 781207) using an ECHO 550 acoustic dispenser (Labcyte). The cells were trypsinized, resuspended in Opti-MEM without phenol red (Life Technologies), and seeded at 2 × 10^5 cells/mL. After equilibration for 2 h at 37 °C/5% CO₂ following compound treatment, the NanoBRET® NanoGlo Substrate + Extracellular NanoLuc® Inhibitor (Promega, N2162) was added according to the manufacturer’s protocol, and filtered luminescence was measured on a PHERAstar plate reader (BMG Labtech) using a donor (450 nm BP) and acceptor (610 nm LP) filter pair. Competitive displacement data were analyzed using GraphPad Prism 9 with a normalized 3-parameter curve fit: Y = 100/(1 + 10^(X − log IC₅₀)). For BRET measurements after FKBP12 knockdown in stably expressing BRD4 Nano-Luc reporter cell line, 10 nL/per well of the FKBP12 PROTAC was pipetted to each well using Labcyte to achieve the final concentration of 200 nM and the plated cells were incubated over-night at 37 °C and 5% CO2. BRET measurements were performed as outlined above.

Experiment [10] addresses T7, His-BRD4^BD2 + eGFP-FKBP12 (Homo sapiens, UniProt O60885+P62942).
T7 construct: the His6-tag of the respective BD1 or BD2 domain of BRD4 and EGFP-labeled FKBP12
Description: HTRF ternary complex formation BRD4 BD2 + EGFP-FKBP12. The experiment is classed as binding. The conditions noted are these: eGFP-FKBP12 5 µM, His-BRD4^BD2 100 nM; read-out: HTRF BRD4^BD2 + GFP-FKBP12 Kd.

Experiment [11] deals with BRD4 43-463 Y390A (Homo sapiens, UniProt O60885, Y390A). Description: competitive FP assay, BRD4 tandem construct Y390A. Type of experiment: binding.
The target of experiment [12] is T8, His-BRD4^BD1 + eGFP-FKBP12 (Homo sapiens, UniProt O60885+P62942).
T8 construct: the His6-tag of the respective BD1 or BD2 domain of BRD4 and EGFP-labeled FKBP12
The experiment is described as follows: HTRF ternary complex formation BRD4 BD1 + EGFP-FKBP12. Particulars: eGFP-FKBP12 5 µM, His-BRD4^BD1 100 nM; read-out: HTRF BRD4^BD1 + GFP-FKBP12 Kd. The experiment is classed as binding.

Experiment [13] has as its target T9, FKBP12 (Homo sapiens, UniProt P62942). The experiment is described as follows: competitive fluorescence polarization assay, binding to FKBP12. Particulars: competitive FP assay.
The target in experiment [14] is BRD4 43-463 (Homo sapiens, UniProt O60885). Description: competitive FP assay, BRD4 tandem bromo domain construct. Type of experiment: binding.
The target of experiment [15] is BRD4 43-463 Y97A (Homo sapiens, UniProt O60885, Y97A). Description: competitive FP assay, BRD4 tandem construct Y97A. The experiment is classed as binding.
In experiment [16] the target is T9, FKBP12. The experiment is described as follows: NanoBRET FKBP12 in intact HEK293 cells. Type of experiment: cell-based.
Experiment [17] relates to MV4-11 cells. Description: CellTiter-Glo cell viability, MV4-11. Type of experiment: cell-based, human. The conditions noted are these: Homo sapiens, MV4-11, 120 h; five days, without FKBP12 PROTAC; read-out: Cell toxicity (MV4-11) - FKBP12 PROTAC IC50.
The test system of experiment [18] is MYC mRNA. The experiment is described as follows: quantitative RT-PCR of MYC mRNA, MV4-11. The experiment is classed as cell-based, human. Particulars: MV4-11.
Setting [19] is: ratio of binding in absence or presence of FKBP12.

Where two headings read alike, the source gives them in different places.

T1 sequence (Q15059 34-140 limits assumed): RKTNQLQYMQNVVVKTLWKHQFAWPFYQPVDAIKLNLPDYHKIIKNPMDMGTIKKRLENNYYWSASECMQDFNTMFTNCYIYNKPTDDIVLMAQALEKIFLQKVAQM
T2 sequence (P25440 74-180 limits assumed): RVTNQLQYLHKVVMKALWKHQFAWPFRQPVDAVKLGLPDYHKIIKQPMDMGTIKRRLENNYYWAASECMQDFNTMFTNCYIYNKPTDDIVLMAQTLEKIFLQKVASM

Consider `Cc1sc2c(c1C)C(c1ccc(Cl)cc1)=N[C@@H](CC(=O)OC(C)(C)C)c1nnc(C)n1-2` [JQ1, (+)-JQ1, reference compound], for which the “α BRD3BD1” value in experiment [1] is 1.0. In addition, in experiment [2], the “α BRD2BD1” value came to 1.0. Besides, the “α BRD4 43-463 Y390A” value in [3] came to 1.0. In [4], the “α BRD2BD2” value was determined as 1.0. The “α BRD3BD2” value in [5] is listed as 1.0. Moreover, in experiment [6], the “α BRD4 43-463 Y97A” value was found to be 1.2.
As to `Cc1sc2c(c1C)C(c1ccc(Cl)cc1)=NC(CC(=O)NCCOCCn1cc(COCC3CN(Cc4ccccn4)C(=O)C4CCCC3N4S(=O)(=O)c3cc(Cl)cc(Cl)c3)nn1)c1nnc(C)n1-2` (stereo not drawn) [a1d], the Kd in experiment [7] (15 µM FKBP51FK1, read-out: Binding to BRD4BD2 + FKBP51FK1 Kd) was 0.47 ± 0.08 µM; in experiment [7] (absence of FKBP12, 2 nM JQ1-FL tracer, read-out: Binding to BRD4^BD2 - FKBP12 Kd) it was 0.32 ± 0.05 µM; in experiment [7] (absence of FKBP51FK1 (SI Table 3), read-out: Binding to BRD4BD2 - FKBP51FK1 Kd), 0.18 ± 0.03 µM; in [7] (presence of 15 µM FKBP12, read-out: Binding to BRD4^BD2 + FKBP12 Kd (converted)), 0.07 µM; in experiment [8] (15 µM FKBP51FK1, read-out: Binding to BRD4BD1 + FKBP51FK1 Kd), 0.5 ± 0.09 µM; in experiment [8] (absence of FKBP12, 2 nM JQ1-FL tracer, read-out: Binding to BRD4^BD1 - FKBP12 Kd), 0.45 ± 0.07 µM. Besides, the Kd in experiment [8] (absence of FKBP51FK1 (SI Table 3), read-out: Binding to BRD4BD1 - FKBP51FK1 Kd) is 0.3 ± 0.05 µM; in experiment [8] (presence of 15 µM FKBP12, read-out: Binding to BRD4^BD1 + FKBP12 Kd (converted)), 0.025 µM; in experiment [8] (values quoted in rebuttal letter (earlier version of Tab. 1), read-out: binding to BRD4BD1 + FKBP12) it was 0.026 µM; in [1] (15 µM FKBP12, read-out: Binding to BRD3BD1 + FKBP12 Kd), 0.023 ± 0.005 µM; in experiment [1] (absence of FKBP12, read-out: Binding to BRD3BD1 - FKBP12 Kd) it was 0.17 ± 0.027 µM; in [2] (15 µM FKBP12, read-out: Binding to BRD2BD1 + FKBP12 Kd) it was 0.036 ± 0.009 µM. Further, the Kd turned out to be 0.26 ± 0.06 µM in experiment [2] (absence of FKBP12, read-out: Binding to BRD2BD1 - FKBP12 Kd); 0.026 ± 0.006 µM in experiment [10]; 0.018 ± 0.002 µM in [11] (Binding to BRD4 43-463 Y390A + FKBP12 Kd, 15 µM FKBP12); 0.183 ± 0.013 µM in experiment [11] (absence of FKBP12); 0.009 ± 0.003 µM in experiment [12]; 0.075 ± 0.02 µM in [4] (15 µM FKBP12, read-out: Binding to BRD2BD2 + FKBP12 Kd). For the same molecule, the Kd in experiment [4] (absence of FKBP12, read-out: Binding to BRD2BD2 - FKBP12 Kd) was 0.19 ± 0.05 µM; in [5] (15 µM FKBP12, read-out: Binding to BRD3BD2 + FKBP12 Kd) it was 0.14 ± 0.03 µM; in experiment [5] (absence of FKBP12, read-out: Binding to BRD3BD2 - FKBP12 Kd), 0.15 ± 0.03 µM; in experiment [13], 0.001 µM; in experiment [14] (Binding to BRD4 43-463 + FKBP12 Kd, 15 µM FKBP12), 0.026 ± 0.003 µM; in experiment [14] (Binding to BRD4 43-463 - FKBP12 Kd, absence of FKBP12), 0.175 ± 0.017 µM. Besides, the Kd in [15] (Binding to BRD4 43-463 Y97A + FKBP12 Kd, 15 µM FKBP12) turned out to be 0.059 ± 0.005 µM; in experiment [15] (Binding to BRD4 43-463 Y97A - FKBP12 Kd, absence of FKBP12) it was 0.13 ± 0.016 µM. Also, the “α BRD4^BD2 (binding cooperativity factor)” value in [7] (setting [19]) is on record as 4.5. Besides, the “α BRD4^BD1 (binding cooperativity factor)” value in experiment [8] (setting [19]) amounted to 18. In addition, in [1], the “α BRD3BD1” value turned out to be 7.4. The IC50 in experiment [9] amounted to 0.82 µM; in experiment [16] it was 0.014 µM; in experiment [17], 0.0017 µM. The “α BRD2BD1” value in experiment [2] is reported as 7.2. Also, in [3], the “α BRD4 43-463 Y390A” value stood at 10. Moreover, the “α BRD2BD2” value in experiment [4] stood at 2.5. For the same molecule, in [5], the “α BRD3BD2” value turned out to be 1.0. Besides, in experiment [14], the “α BRD4 43-463” value is 6.7. For the same molecule, the “α BRD4 43-463 Y97A” value in experiment [6] came out at 2.2.
As for `CCCCCCCC/C=C\CCCCCCCC(=O)ON1C(=O)CC(S(=O)(=O)O)C1=O` (stereo not drawn) [sulfosuccinimidyl oleate (SSO), sulfosuccinimidyl oleate, reference compound], in [18], the “effect of CD36 inhibitor on myc repression upon a1dj treatment” value is “did not observe any effect”.
